Test results published in patent publication US9011936B2, “Extract of Rosmarinus officinalis L. leaves for pharmaceutical applications” (Naturex, S.A., priority 2009, dated 2015).

Columns and labels:
LDL = test: Cu^2+-induced LDL oxidation in vitro (conjugated dienes, absorbance at 234 nm); type: biochemical; parameters: key to Lag phase / Oxidation rate / Maximum quantity of dienes: NC: Not calculated since the samples totally inhibits the LDL from oxidation
Method: LDL was concentrated from the plasma of normolipidemic donors by density gradient ultracentrifugation. Prior to oxidation, LDL was diluted in a phosphate buffered saline (PBS) and dialyzed against PBS at 4° C. to remove EDTA. The protein content was determined and adjusted to obtain 0.125 mg of protein/mL. […] The amounts of conjugated dienes were measured by determining the increased absorbance at 234 nm at 10 min intervals for a course span of 720 min using a Tecan Ultra Spectrophotometer (Tecan, Austria). Results were expressed as the relative absorbance at 234 nm. The lag phase, oxidation rate, and the maximum quantity of conjugated dienes were calculated. Results are reported as the mean±SD of three trials for each test. Differential between groups was calculated using the Student's t-test (XLSTAT 2008, Addinsoft™, USA), and the statistical significance was set at P<0.05.

pancreatic lipase = biological target: T1, pancreatic lipase (Homo sapiens, UniProt P16233); conditions: cited from earlier work
T1 sequence (P16233 17-465): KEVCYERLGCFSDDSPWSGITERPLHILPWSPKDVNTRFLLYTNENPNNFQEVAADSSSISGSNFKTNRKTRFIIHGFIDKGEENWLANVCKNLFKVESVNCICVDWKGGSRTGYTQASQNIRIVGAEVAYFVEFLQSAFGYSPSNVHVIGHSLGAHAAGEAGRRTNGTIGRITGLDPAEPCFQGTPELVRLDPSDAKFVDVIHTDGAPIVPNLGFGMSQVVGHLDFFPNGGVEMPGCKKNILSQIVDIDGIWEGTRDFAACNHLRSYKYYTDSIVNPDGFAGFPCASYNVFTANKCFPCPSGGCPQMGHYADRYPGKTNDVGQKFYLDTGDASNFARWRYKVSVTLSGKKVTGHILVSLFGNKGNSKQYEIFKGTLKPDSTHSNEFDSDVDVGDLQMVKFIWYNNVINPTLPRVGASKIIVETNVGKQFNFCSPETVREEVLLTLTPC

human PPARγ = biological target: T2, human PPARγ (Homo sapiens, UniProt P37231); conditions: cited from earlier work
T2 sequence (P37231 1-505): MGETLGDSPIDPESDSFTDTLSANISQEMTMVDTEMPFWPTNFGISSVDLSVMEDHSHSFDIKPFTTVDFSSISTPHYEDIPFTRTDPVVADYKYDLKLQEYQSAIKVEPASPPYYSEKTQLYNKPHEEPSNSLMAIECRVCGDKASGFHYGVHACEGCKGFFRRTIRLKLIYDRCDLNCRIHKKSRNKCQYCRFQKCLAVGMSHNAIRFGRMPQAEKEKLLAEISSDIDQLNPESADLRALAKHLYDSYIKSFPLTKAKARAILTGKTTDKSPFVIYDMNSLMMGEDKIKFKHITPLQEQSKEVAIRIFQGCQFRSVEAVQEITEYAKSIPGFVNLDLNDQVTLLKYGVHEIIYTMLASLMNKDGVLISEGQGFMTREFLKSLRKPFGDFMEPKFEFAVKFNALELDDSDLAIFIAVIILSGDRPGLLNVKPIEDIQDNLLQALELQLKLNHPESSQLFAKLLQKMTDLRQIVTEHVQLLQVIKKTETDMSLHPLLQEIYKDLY

olive oil-loaded mice = conditions: doses of 5-20 mg/kg; cited from earlier work
mice fed a high fat diet = conditions: 20 mg/kg/day; after 14 days; cited from earlier work

Row | Structure (SMILES) | Lag phase (LDL; 10 μM, mean ± SD, three trials) [min] | Maximum quantity of dienes (LDL; 10 μM, mean ± SD, three trials) | Oxidation rate (LDL; 10 μM, mean ± SD, three trials) [min⁻¹] | Lag phase (LDL; 100 μM) | Maximum quantity of dienes (LDL; 100 μM) | Oxidation rate (LDL; 100 μM) | inhibition of LDL oxidation (LDL; 100 μM) | pancreatic lipase activity (pancreatic lipase) | activation of human PPARγ (human PPARγ) | triglyceride elevation (olive oil-loaded mice) | gain of body weight and accumulation of epididymal fat weight (mice fed a high fat diet)
1 | Cc1c(C)c2c(c(C)c1O)CCC(C)(C(=O)O)O2 (stereo not shown) [Trolox] | 180 ± 5.2 | 99.0 ± 1.2 nmol/mg of LDL | 80.1 ± 4.1 | NC | NC | NC | complete inhibition |  |  |  | 
2 | CC(C)c1cc2c(c(O)c1O)[C@@]1(C(=O)O)CCCC(C)(C)[C@@H]1CC2 [carnosic acid] |  |  |  |  |  |  |  | substantially inhibited | activators | significantly inhibited | reduced
3 | CC(C)c1cc2c(c(O)c1O)[C@@]13CCCC(C)(C)[C@@H]1C[C@@H]2OC3=O [carnosol] |  |  |  |  |  |  |  | substantially inhibited | activators |  | 
